# Results: US11548870B2, “Compounds useful as inhibitors of helios protein” (Bristol-Myers Squibb Company, priority 2019, dated 2023)
# Read-outs that look alike come from different tables or passages of the source.
# Key:
# Ikaros = target: T1, Ikaros (Homo sapiens, UniProt Q13422); experiment: Helios Cellular Degradation Assay, Ikaros readout (flow cytometry, Ikaros-Alexa488 antibody staining, 72 h); type: cell-based; settings: for Dmax: Jurkat, read-out: Ikaros Dmax
# T1 construct: fluorescently labelled antibodies against Helios and Ikaros; endogenous in cells; host or cells: Jurkat cells
# T1 sequence (Q96SW2 whole entry partner): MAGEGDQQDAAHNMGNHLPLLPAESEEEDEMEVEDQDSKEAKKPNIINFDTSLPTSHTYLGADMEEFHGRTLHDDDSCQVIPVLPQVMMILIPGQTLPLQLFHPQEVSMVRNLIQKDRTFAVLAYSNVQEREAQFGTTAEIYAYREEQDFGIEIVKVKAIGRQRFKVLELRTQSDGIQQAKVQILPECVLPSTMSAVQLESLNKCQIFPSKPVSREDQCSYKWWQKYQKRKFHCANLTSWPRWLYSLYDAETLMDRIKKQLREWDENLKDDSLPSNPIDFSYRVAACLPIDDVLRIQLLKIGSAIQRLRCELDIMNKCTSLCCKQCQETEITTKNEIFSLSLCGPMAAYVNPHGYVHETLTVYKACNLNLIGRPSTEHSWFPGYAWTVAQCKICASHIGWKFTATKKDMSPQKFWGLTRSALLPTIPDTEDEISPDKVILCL
# T1 sequence (Q16531 whole entry partner): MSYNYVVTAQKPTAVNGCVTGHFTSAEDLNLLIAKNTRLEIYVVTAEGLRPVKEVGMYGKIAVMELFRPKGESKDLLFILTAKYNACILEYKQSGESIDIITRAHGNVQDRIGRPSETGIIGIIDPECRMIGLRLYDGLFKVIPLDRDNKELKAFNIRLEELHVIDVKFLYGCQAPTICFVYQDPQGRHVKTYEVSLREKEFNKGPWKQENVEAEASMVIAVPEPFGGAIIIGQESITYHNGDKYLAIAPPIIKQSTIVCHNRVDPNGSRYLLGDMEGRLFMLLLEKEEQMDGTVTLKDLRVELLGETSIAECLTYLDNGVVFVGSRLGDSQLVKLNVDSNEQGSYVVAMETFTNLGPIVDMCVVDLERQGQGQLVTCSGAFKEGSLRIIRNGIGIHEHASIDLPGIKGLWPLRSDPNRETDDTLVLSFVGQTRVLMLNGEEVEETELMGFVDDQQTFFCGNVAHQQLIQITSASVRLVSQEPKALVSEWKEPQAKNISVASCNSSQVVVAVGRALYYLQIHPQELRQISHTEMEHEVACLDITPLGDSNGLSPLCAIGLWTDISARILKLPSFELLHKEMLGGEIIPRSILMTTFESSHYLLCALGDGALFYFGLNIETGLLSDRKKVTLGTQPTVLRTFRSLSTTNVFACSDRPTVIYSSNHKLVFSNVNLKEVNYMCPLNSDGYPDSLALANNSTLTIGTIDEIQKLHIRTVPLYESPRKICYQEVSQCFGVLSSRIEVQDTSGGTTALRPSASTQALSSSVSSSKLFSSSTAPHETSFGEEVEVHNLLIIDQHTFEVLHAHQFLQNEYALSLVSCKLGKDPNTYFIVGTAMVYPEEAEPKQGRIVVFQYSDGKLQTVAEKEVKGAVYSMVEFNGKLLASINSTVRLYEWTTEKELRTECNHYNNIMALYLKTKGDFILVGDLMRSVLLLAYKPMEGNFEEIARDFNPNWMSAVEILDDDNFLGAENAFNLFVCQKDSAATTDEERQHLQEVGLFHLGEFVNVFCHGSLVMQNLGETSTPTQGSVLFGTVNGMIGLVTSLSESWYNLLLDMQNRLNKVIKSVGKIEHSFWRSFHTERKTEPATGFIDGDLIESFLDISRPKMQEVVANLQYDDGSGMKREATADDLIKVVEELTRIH
# T1 sequence (Q13422 whole entry): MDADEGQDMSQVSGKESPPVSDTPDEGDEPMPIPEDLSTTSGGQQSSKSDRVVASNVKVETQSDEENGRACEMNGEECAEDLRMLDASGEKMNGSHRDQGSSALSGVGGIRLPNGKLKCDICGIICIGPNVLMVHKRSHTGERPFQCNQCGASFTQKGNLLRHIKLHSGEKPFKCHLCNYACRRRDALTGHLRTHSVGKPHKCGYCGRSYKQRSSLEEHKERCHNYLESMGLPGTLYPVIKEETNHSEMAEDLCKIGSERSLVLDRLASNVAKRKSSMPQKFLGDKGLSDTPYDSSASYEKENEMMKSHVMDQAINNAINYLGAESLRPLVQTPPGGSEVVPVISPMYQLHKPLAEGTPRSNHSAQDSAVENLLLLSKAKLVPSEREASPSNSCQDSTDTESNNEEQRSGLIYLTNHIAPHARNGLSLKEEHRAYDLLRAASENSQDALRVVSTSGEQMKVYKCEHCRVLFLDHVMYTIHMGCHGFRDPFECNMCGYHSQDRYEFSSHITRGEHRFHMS
# Procedure, shortened: (§1)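 Flow cytometry of fixed, permeabilized Jurkat cells stained with anti-Helios-PE and anti-Ikaros-Alexa488 (1 h, room temperature) measured remaining protein. Treatment lasted 72 h at 37 °C, 5% CO2, at 80,000 cells/well in RPMI with 10% FBS.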
# Helios = target: T2, Helios (Homo sapiens, UniProt Q96SW2+Q9UKS7); experiment: Helios Cellular Degradation Assay (flow cytometry, Helios-PE antibody staining, 72 h); type: cell-based; settings: for Dmax: Jurkat, read-out: Helios Dmax
# T2 construct: fluorescently labelled antibodies against Helios and Ikaros; endogenous in cells; host or cells: Jurkat cells
# T2 sequence (Q9UKS7 whole entry): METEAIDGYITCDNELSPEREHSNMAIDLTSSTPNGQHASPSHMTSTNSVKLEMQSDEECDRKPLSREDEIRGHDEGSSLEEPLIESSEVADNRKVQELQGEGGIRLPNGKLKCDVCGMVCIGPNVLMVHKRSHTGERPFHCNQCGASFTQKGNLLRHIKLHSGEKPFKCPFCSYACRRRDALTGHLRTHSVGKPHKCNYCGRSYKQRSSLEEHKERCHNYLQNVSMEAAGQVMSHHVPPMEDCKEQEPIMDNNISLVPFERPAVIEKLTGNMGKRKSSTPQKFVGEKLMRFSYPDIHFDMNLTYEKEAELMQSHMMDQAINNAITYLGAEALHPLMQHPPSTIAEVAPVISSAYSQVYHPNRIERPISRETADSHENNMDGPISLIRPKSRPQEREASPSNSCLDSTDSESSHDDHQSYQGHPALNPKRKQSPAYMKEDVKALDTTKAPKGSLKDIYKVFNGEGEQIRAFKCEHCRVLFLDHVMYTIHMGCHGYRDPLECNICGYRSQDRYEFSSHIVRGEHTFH
# T2 sequence (Q96SW2 whole entry): as the sequence (Q96SW2 whole entry partner) above
# T2 sequence (Q16531 whole entry partner): as the sequence (Q16531 whole entry partner) above
# Procedure, shortened: as §1
# [1] = Jurkat cells, 72 h incubation, flow cytometry
Structure (SMILES),DC50 (Ikaros; [1]),Dmax (Ikaros; [1]),DC50 (Helios; [1]),Dmax (Helios; [1]),Dmax (Ikaros),Dmax (Helios)
"O=C1CCC(N2Cc3cc(-c4cc(CN5CC[C@H](c6ccccc6)C5)ccn4)ccc3C2=O)C(=O)N1 (stereo partly drawn) [Example 138, 3-(1-oxo-5-(4-(((R)-3-phenylpyrrolidin-1-yl)methyl)pyridin-2-yl)isoindolin-2-yl)piperidine-2,6-dione]",> 10 µM,18%,0.037 µM,82%,,
"O=C1CCC(N2Cc3cc(-c4cc(CN5CC[C@@H](c6ccccc6)C5)ccn4)ccc3C2=O)C(=O)N1 (stereo partly drawn) [Example 139, 3-(1-oxo-5-(4-(((S)-3-phenylpyrrolidin-1-yl)methyl)pyridin-2-yl)isoindolin-2-yl)piperidine-2,6-dione]",> 10 µM,3%,0.025 µM,91%,,
"CN[C@@H]1CCCC[C@H]1N(C)Cc1ccnc(-c2ccc3c(c2)CN(C2CCC(=O)NC2=O)C3=O)c1 (stereo partly drawn) [Example 140, 3-(5-(4-((methyl((1R,2R)-2-(methylamino)cyclohexyl)amino)methyl)pyridin-2-yl)-1-oxoisoindolin-2-yl)piperidine-2,6-dione]",> 10 µM,22%,0.012 µM,76%,,
"O=C1CCC(N2Cc3cc(-c4cc(CN5CCC(c6ccccc6)CC5)ccn4)ccc3C2=O)C(=O)N1 (centres unmarked) [Example 141, 3-(1-oxo-5-(4-((4-phenylpiperidin-1-yl)methyl)pyridin-2-yl)isoindolin-2-yl)piperidine-2,6-dione]",> 10 µM,20%,0.046 µM,82%,,
"CN(Cc1ccnc(-c2ccc3c(c2)CN(C2CCC(=O)NC2=O)C3=O)c1)C(C)(C)c1ccccc1 (centres unmarked) [Example 142, 3-(5-(4-((methyl(2-phenylpropan-2-yl)amino)methyl)pyridin-2-yl)-1-oxoisoindolin-2-yl)piperidine-2,6-dione]",0.897 µM,52%,0.088 µM,83%,,
"O=C1CCC(N2Cc3cc(-c4cc(CN5CCCC(c6ccccc6)C5)ccn4)ccc3C2=O)C(=O)N1 (centres unmarked) [Example 143, 3-(1-oxo-5-(4-((3-phenylpiperidin-1-yl)methyl)pyridin-2-yl)isoindolin-2-yl)piperidine-2,6-dione]",> 10 µM,1%,0.04 µM,62%,,
"NCc1ccnc(-c2ccc3c(c2)CN(C2CCC(=O)NC2=O)C3=O)c1 (centres unmarked) [Example 144, 3-{5-[4-(Aminomethyl)pyridin-2-yl]-1-oxo-2,3-dihydro-1H-isoindol-2-yl}piperidine-2,6-dione]",> 10 µM,11%,2.02 µM,57%,,
"CNCc1ccnc(-c2ccc3c(c2)CN(C2CCC(=O)NC2=O)C3=O)c1 (centres unmarked) [Example 145, 3-(5-{4-[(Methylamino)methyl]pyridin-2-yl}-1-oxo-2,3-dihydro-1H-isoindol-2-yl) piperidine-2,6-dione]",> 10 µM,11%,0.067 µM,93%,,
"CN(Cc1ccc(S(=O)(=O)N(C)C)cc1)Cc1ccnc(-c2ccc3c(c2)CN(C2CCC(=O)NC2=O)C3=O)c1 (centres unmarked) [Example 146, 4-{[({2-[2-(2,6-Dioxopiperidin-3-yl)-1-oxo-2,3-dihydro-1H-isoindol-5-yl]pyridin-4-yl}methyl)(methyl)amino]methyl}-N,N-dimethylbenzene-1-sulfonamide]",> 10 µM,5%,> 10 µM,3%,,
"CN(Cc1ccc(F)cc1)Cc1ccnc(-c2ccc3c(c2)CN(C2CCC(=O)NC2=O)C3=O)c1 (centres unmarked) [Example 147, 3-(5-(4-(((4-fluorobenzyl)(methyl)amino)methyl)pyridin-2-yl)-1-oxoisoindolin-2-yl)piperidine-2,6-dione]",> 10 µM,4%,0.226 µM,74%,,
"CN(Cc1cccc(C(F)(F)F)c1)Cc1ccnc(-c2ccc3c(c2)CN(C2CCC(=O)NC2=O)C3=O)c1 (centres unmarked) [Example 148, 3-(5-(4-((methyl(3-(trifluoromethyl)benzyl)amino)methyl)pyridin-2-yl)-1-oxoisoindolin-2-yl)piperidine-2,6-dione]",> 10 µM,,0.238 µM,,9%,75%
"CN(Cc1ccc(C(F)(F)F)cc1)Cc1ccnc(-c2ccc3c(c2)CN(C2CCC(=O)NC2=O)C3=O)c1 (centres unmarked) [Example 149, 3-(5-(4-((methyl(4-(trifluoromethyl)benzyl)amino)methyl)pyridin-2-yl)-1-oxoisoindolin-2-yl)piperidine-2,6-dione]",> 10 µM,6%,> 10 µM,17%,,
"CN(Cc1ccc(C#N)cc1)Cc1ccnc(-c2ccc3c(c2)CN(C2CCC(=O)NC2=O)C3=O)c1 (centres unmarked) [Example 150, 4-((((2-(2-(2,6-dioxopiperidin-3-yl)-1-oxoisoindolin-5-yl)pyridin-4-yl)methyl)(methyl)amino)methyl)benzonitrile]",> 10 µM,17%,> 10 µM,45%,,
"CN(Cc1ccc([N+](=O)[O-])cc1)Cc1ccnc(-c2ccc3c(c2)CN(C2CCC(=O)NC2=O)C3=O)c1 (centres unmarked) [Example 151, 3-(5-(4-((methyl(4-nitrobenzyl)amino)methyl)pyridin-2-yl)-1-oxoisoindolin-2-yl)piperidine-2,6-dione]",> 10 µM,1%,> 10 µM,23%,,
"CN(Cc1ccnc(-c2ccc3c(c2)CN(C2CCC(=O)NC2=O)C3=O)c1)Cc1ccc(F)c(F)c1 (centres unmarked) [Example 152, 3-(5-(4-(((3,4-difluorobenzyl)(methyl)amino)methyl)pyridin-2-yl)-1-oxoisoindolin-2-yl)piperidine-2,6-dione]",> 10 µM,7%,0.85 µM,55%,,
"COC(=O)c1ccc(CN(C)Cc2ccnc(-c3ccc4c(c3)CN(C3CCC(=O)NC3=O)C4=O)c2)cc1 (centres unmarked) [Example 153, methyl 4-((((2-(2-(2,6-dioxopiperidin-3-yl)-1-oxoisoindolin-5-yl)pyridin-4-yl)methyl)(methyl)amino)methyl)benzoate]",> 10 µM,7%,4.71 µM,58%,,
"CN(Cc1ccc(Cl)cc1)Cc1ccnc(-c2ccc3c(c2)CN(C2CCC(=O)NC2=O)C3=O)c1 (centres unmarked) [Example 154, 3-(5-(4-(((4-chlorobenzyl)(methyl)amino)methyl)pyridin-2-yl)-1-oxoisoindolin-2-yl)piperidine-2,6-dione]",> 10 µM,6%,3.26 µM,54%,,
"CN(Cc1ccnc(-c2ccc3c(c2)CN(C2CCC(=O)NC2=O)C3=O)c1)Cc1cccc2cccnc12 (centres unmarked) [Example 155, 3-(5-(4-((methyl(quinolin-8-ylmethyl)amino)methyl)pyridin-2-yl)-1-oxoisoindolin-2-yl)piperidine-2,6-dione]",> 10 µM,0%,1.58 µM,57%,,
"CN(Cc1cccc(OC(F)(F)F)c1)Cc1ccnc(-c2ccc3c(c2)CN(C2CCC(=O)NC2=O)C3=O)c1 (centres unmarked) [Example 156, 3-(5-(4-((methyl(3-(trifluoromethoxy)benzyl)amino)methyl)pyridin-2-yl)-1-oxoisoindolin-2-yl)piperidine-2,6-dione]",> 10 µM,11%,1.83 µM,56%,,
"CN(Cc1ccc(S(C)(=O)=O)cc1)Cc1ccnc(-c2ccc3c(c2)CN(C2CCC(=O)NC2=O)C3=O)c1 (centres unmarked) [Example 157, 3-(5-(4-((methyl(4-(methylsulfonyl)benzyl)amino)methyl)pyridin-2-yl)-1-oxoisoindolin-2-yl)piperidine-2,6-dione]",> 10 µM,8%,> 10 µM,38%,,
"COc1cccc(CN(C)Cc2ccnc(-c3ccc4c(c3)CN(C3CCC(=O)NC3=O)C4=O)c2)c1 (centres unmarked) [Example 158, 3-(5-(4-(((3-methoxybenzyl)(methyl)amino)methyl)pyridin-2-yl)-1-oxoisoindolin-2-yl)piperidine-2,6-dione]",> 10 µM,3%,0.256 µM,74%,,
"CN(Cc1cccnc1)Cc1ccnc(-c2ccc3c(c2)CN(C2CCC(=O)NC2=O)C3=O)c1 (centres unmarked) [Example 159, 3-(5-(4-((methyl(pyridin-3-ylmethyl)amino)methyl)pyridin-2-yl)-1-oxoisoindolin-2-yl)piperidine-2,6-dione]",> 10 µM,25%,0.136 µM,76%,,
"CN(Cc1ccncc1)Cc1ccnc(-c2ccc3c(c2)CN(C2CCC(=O)NC2=O)C3=O)c1 (centres unmarked) [Example 160, 3-(5-(4-((methyl(pyridin-4-ylmethyl)amino)methyl)pyridin-2-yl)-1-oxoisoindolin-2-yl) piperidine-2,6-dione]",> 10 µM,30%,0.359 µM,70%,,
"Cc1ccc(CN(C)Cc2ccnc(-c3ccc4c(c3)CN(C3CCC(=O)NC3=O)C4=O)c2)cc1 (centres unmarked) [Example 161, 3-(5-(4-((methyl(4-methylbenzyl)amino)methyl)pyridin-2-yl)-1-oxoisoindolin-2-yl)piperidine-2,6-dione]",> 10 µM,17%,0.067 µM,83%,,
"CN(Cc1ccnc(-c2ccc3c(c2)CN(C2CCC(=O)NC2=O)C3=O)c1)Cc1ccc2ccccc2c1 (centres unmarked) [Example 162, 3-(5-(4-((methyl(naphthalen-2-ylmethyl)amino)methyl)pyridin-2-yl)-1-oxoisoindolin-2-yl)piperidine-2,6-dione]",> 10 µM,2%,1.09 µM,63%,,
"O=C1CCC(N2Cc3cc(-c4cc(CN(Cc5ccccc5)Cc5ccccc5)ccn4)ccc3C2=O)C(=O)N1 (centres unmarked) [Example 163, 3-(5-{4-[(Dibenzylamino)methyl]pyridin-2-yl}-1-oxo-2,3-dihydro-1H-isoindol-2-yl)piperidine-2,6-dione]",> 10 µM,31%,1.02 µM,56%,,
